From US6627630B1, “Condensed pyridazine derivatives, their production and use” (Takeda Chemical Industries, Ltd., priority 1998, dated 2003)
Structures can show the parent of a compound that is named as a salt.

Tests used:
[1] = system: histamine-induced skin reactions; assay: Effect on histamine-induced skin reactions in guinea pigs; format: in vivo, guinea pig; settings: 1 hour before intradermal histamine
Description: Effect on Histamine-induced Skin Reactions in Guinea Pigs
(§1) Male Hartley guinea pigs weighing about 500 g were used. After the dorsal hair was shaved under ether anesthesia, 1 ml of a 2.5% pontamine sky blue solution was injected intravenously administered, and then 0.1 ml of histamine at 3 μg/ml was injected intradermally into 2 sites (left and right) in the back. Thirty minutes after the injection of histamine, animals were killed by bleeding and the skin was removed. Two perpendicular diameters (mm) of each blue spot on the inside of the skin were measured and multiplied; the mean for the two products was taken as the microvascular permeability index. Test compounds were suspended in a 5% gum arabic solution and orally administered in a volume of 0.2 ml/100 g body weight 1 hour before histamine administration. Animals in the control group received the same volume of a 5% gum arabic solution. The suppression rate of the sample for the title reaction was calculated using Equation 1.
Inhibition (%) of histamine-induced skin reactions=100×(1−vascular permeability index in the presence of drug/vascular permeability index in control group) Equation 1
as §1, with “bleeding and he skin was” for “bleeding and the skin was”, “measured and multiplied, the mean” for “measured and multiplied; the mean”

Structure (SMILES) | melting point [°C] | further results
CC(C)(C(=O)O)c1cn2nc(OCCCN3CCC(OC(c4ccccc4)c4ccccc4)CC3)ccc2n1 [Example 45A] | – | Inhibition (%) of Histamine-induced Skin Reactions, 3 mg/kg Oral Administration ([1]; Table 1): 91%
O=C(CCN1CCC(OC(c2ccccc2)c2ccccc2)CC1)Nc1ccc2ncnn2n1 [Example 18A] | – | Inhibition (%) of Histamine-induced Skin Reactions, 3 mg/kg Oral Administration ([1]; Table 1): 91%
Cc1nc2ccc(NCCCN3CCC(OC(c4ccccc4)c4ccccc4)CC3)nn2c1C(=O)O [Example 107A, [6-[3-[4-(Diphenylmethoxy)piperidino]propylamino]-2-methylimidazo[1,2-b]pyridazin-3-yl]carboxylic Acid] | 101 to 103 | –
O=C(OCCOc1ccc2ncnn2n1)N1CCC(OC(c2ccccc2)c2ccccc2)CC1 [Example 25A, 6-[2-[4-(Diphenylmethoxy)piperidinocarbonyloxy]ethoxy][1,2,4]triazolo[1,5-b]pyridazine] | 75 to 76 | –
Cc1cc2nc(C(C)(C)C(=O)O)cn2nc1OCCCN1CCC(OC(c2ccccc2)c2ccccc2)CC1 [Example 89A, 2-[6-[3-[4-(Diphenylmethoxy)piperidino]propoxy]-7-methylimidazo[1,2-b]pyridazin-2-yl]-2-methylpropionic Acid] | 122 | –
Cc1cc2ncnn2nc1OCCOCCN1CCN(C(c2ccccc2)c2ccccc2)CC1 [Example 47A, 6-[2-[2-[4-(Diphenylmethyl)-1-piperazinyl]ethoxy]ethoxy]-7-methyl[1,2,4]triazolo[1,5-b]pyridazine] | 71 to 72 | –
c1ccc(C(OC2CCN(CCCOc3ccc4ncnn4n3)CC2)c2ccccc2)cc1 (as salt: fumarate) [Example 2A, 6-[3-[4-(Diphenylmethoxy)piperidino]propoxy][1,2,4]triazolo[1,5-b]pyridazine Fumarate] | 157 to 159 | –
COc1cn2nc(OCCCN3CCC(OC(c4ccccc4)c4ccccc4)CC3)ccc2n1 [Example 41A, 6-[3-[4-(Diphenylmethoxy)piperidino]propoxy]-2-methoxyimidazo[1,2-b]pyridazine] | 133 to 135 | –
CC(C)(C(=O)O)c1cn2nc(NCCCN3CCC(OC(c4ccccc4)c4ccccc4)CC3)ccc2n1.O.O [Example 135A, 2-[6-[3-[4-(Diphenylmethoxy)piperidino]propylamino]imidazo[1,2-b]pyridazin-2-yl)-2-methylpropionic Acid Dihydrate] | – | Inhibition (%) of Histamine-induced Skin Reactions, 3 mg/kg Oral Administration ([1]; Table 1): 91%; Inhibition (%) of Histamine-induced Skin Reactions, 3 mg/kg Oral Administration ([1]; Table 3): 91%
CCOC(=O)CNC(=O)c1nc2ccc(NCCCN3CCC(OC(c4ccccc4)c4ccccc4)CC3)nn2c1C [Example 127A, N-[6-[3-[4-(Diphenylmethoxy)piperidino]propylamino]-3-methylimidazo[1,2-b]pyridazine-2-carbonyl]glycine Ethyl Ester] | 158 to 160 | –
CC(C)(C)c1cc2ncnn2nc1OCCOCCN1CCN(C(c2ccccc2)c2ccccc2)CC1 (as salt: hydrochloride) [Example 62A, 7-t-Butyl-6-[2-[2-[4-(Diphenylmethyl)-1-piperazinyl]ethoxy]ethoxy][1,2,4]triazolo[1,5-b]pyridazine Dihydrochloride] | 150 to 152 | –
Cc1nc2ccc(NCCCN3CCC(OC(c4ccccc4)c4ccccc4)CC3)nn2n1 [Example 20A, 6-[3-[4-(Diphenylmethoxy)piperidino]propylamino]-2-methyl[1,2,4]triazolo[1,5-b]pyridazine] | 119 to 120 | –
CCOC(=O)CNC(=O)c1cn2nc(NCCCN3CCC(OC(c4ccccc4)c4ccccc4)CC3)ccc2n1 [Example 70A, N-[6-[3-[4-(Diphenylmethoxy)piperidino]propylamino]imidazo[1,2-b]pyridazine-2-carbonyl]glycine Ethyl Ester] | 172 to 174 | –
COc1cn2nc(OCCCN3CCN(C(c4ccccc4)c4ccccc4)CC3)ccc2n1 [Example 42A, 6-[3-[4-(Diphenylmethyl)-1-piperazinyl]propoxy]-2-methoxyimidazo[1,2-b]pyridazine] | 144 to 146 | –
CCOC(=O)CCNC(=O)c1cn2nc(NCCCN3CCC(OC(c4ccccc4)c4ccccc4)CC3)ccc2n1 [Example 112A, N-[6-[3-[4-(Diphenylmethoxy)piperidino]propylamino]imidazo[1,2-b]pyridazine-2-carbonyl]-β-alanine Ethyl Ester] | 83 to 86 | –
CC(C)c1cc2ncnn2nc1SCCOCCN1CCN(C(c2ccccc2)c2ccccc2)CC1 (as salt: hydrochloride) [Example 59A, 6-[2-[2-[4-(Diphenylmethyl)-1-piperazinyl]ethoxy]ethylthio]-7-isopropyl[1,2,4]triazolo[1,5-b]pyridazine Dihydrochloride] | 143 to 145 | –
CC(C)(C(=O)O)c1cn2nc(NCCN3CCC(OC(c4ccccc4)c4ccccc4)CC3)ccc2n1 [Example 79A, 2-[6-[2-[4-(Diphenylmethoxy)piperidino]ethylamino]imidazo[1,2-b]pyridazin-2-yl]-2-methylpropionic Acid] | 194 to 198 | –
CC(C)(C(=O)O)c1cn2nc(NCCCN3CCC(OC(c4ccccc4)c4ccccc4)CC3)ccc2n1.O.O (hydrate or solvate) [Example 135A, 2-[6-[3-[4-(Diphenylmethoxy)piperidino]propylamino]imidazo[1,2-b]pyridazin-2-yl)-2-methylpropionic Acid Dihydrate] | 203 to 205 | –
CC(C)(C(=O)O)c1cn2nc(CCCN3CCC(OC(c4ccccc4)c4ccccc4)CC3)ccc2n1 [Example 102A, 2-[6-[3-[4-(Diphenylmethoxy)piperidino]propyl]imidazo[1,2-b]pyridazin-2-yl]-2-methylpropionic Acid] | 195 to 205 | –
CCOC(=O)C(C)(C)c1cn2nc(CCCCN3CCN(C(c4ccccc4)c4ccccc4)CC3)ccc2n1 [Example 94A, Ethyl 2-[6-[4-[4-(Diphenylmethyl)-1-piperazinyl]butyl]imidazo[1,2-b]pyridazin-2-yl]-2-methylpropionate] | 105 to 106 | –
Cc1c(C(C)(C)C(=O)O)nc2ccc(NCCCN3CCC(OC(c4ccccc4)c4ccccc4)CC3)nn12 [Example 138A, 2-[6-[3-[4-(Diphenylmethoxy)piperidino]propylamino]-3-methylimidazo[1,2-b]pyridazin-2-yl]-2-methylpropionic Acid] | 219 to 220 | –
Cc1nc2ccc(OCCCN3CCC(OC(c4ccccc4)c4ccccc4)CC3)nn2n1 [Example 21A, 6-[3-[4-(Diphenylmethoxy)piperidino]propoxy]-2-methyl[1,2,4]triazolo[1,5-b]pyridazine] | 134 to 136 | –
CC(C)(C(=O)O)c1cn2nc(CCCN3CCN(C(c4ccccc4)c4ccccc4)CC3)ccc2n1 [Example 104A, 2-[6-[3-[4-(Diphenylmethyl)-1-piperazinyl]propyl]imidazo[1,2-b]pyridazin-2-yl]-2-methylpropionic Acid] | 176 to 178 | –
CC(C)(C)c1cc2ncnn2nc1SCCOCCN1CCN(C(c2ccccc2)c2ccccc2)CC1 [Example 60A, 6-[2-[2-[4-(Diphenylmethyl)-1-piperazinyl]ethoxy]ethylthio]-7-t-butyl[1,2,4]triazolo[1,5-b]pyridazine] | 106 to 108 | –
CC(C)(CO)c1cn2nc(NCCCN3CCC(OC(c4ccccc4)c4ccccc4)CC3)ccc2n1 [Example 75A, 2-[6-[3-[4-(Diphenylmethoxy)piperidino]propylamino]imidazo[1,2-b]pyridazin-2-yl)-2-methylpropanol] | 105 to 108 | –
O=C(CCN1CCN(C(c2ccccc2)c2ccccc2)CC1)Nc1ccc2ncnn2n1 [Example 19A, 3-[4-(Diphenylmethyl)-1-piperazinyl]-N-([1,2,4]triazolo[1,5-b]pyridazin-6-yl)propionamide] | 176 to 177 | –
